# Laboratory results from US8030453B2, “Methods of making an antibody that binds a chemerin polypeptide” (Euroscreen S.A., priority 2001, dated 2011).
# Peptide text beside a SMILES is read from it.
# Target: T1, human ChemerinR (ChemR23) expressed in CHO-K1 cells (Homo sapiens, UniProt Q99788)
# T1 construct: This fragment was subcloned into the pcDNA3 (Invitrogen) vector; expressed in transfected cells; host or cells: CHO-K1 (co-expressing mitochondrial apoaequorin and Galpha16)
# T1 sequence (Q99788 3-373): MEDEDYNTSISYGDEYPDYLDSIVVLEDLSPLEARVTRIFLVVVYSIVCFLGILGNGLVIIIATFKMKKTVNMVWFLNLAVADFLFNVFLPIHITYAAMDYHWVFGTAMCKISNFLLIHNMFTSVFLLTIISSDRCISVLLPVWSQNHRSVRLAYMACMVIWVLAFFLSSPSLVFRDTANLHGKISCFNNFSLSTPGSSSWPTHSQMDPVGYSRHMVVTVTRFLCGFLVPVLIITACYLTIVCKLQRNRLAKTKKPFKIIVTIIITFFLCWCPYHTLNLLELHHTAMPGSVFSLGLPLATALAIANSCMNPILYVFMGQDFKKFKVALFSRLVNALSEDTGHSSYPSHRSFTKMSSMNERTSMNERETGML
# Assay: aequorin-based intracellular Ca2+ release assay
# Format: cell-based
# Conditions: not given
# Protocol: Briefly, ChemerinR-expressing clones are transfected to coexpress mitochondrial apoaequorin and Gα16. Cells are incubated with 5 μM Coelenterazine H (Molecular Probes) for 4 hours at room temperature, washed in DMEM-F12 culture medium and resuspended at a concentration of 0.5×10^6 cells/ml. Cells are then mixed with test agonist peptides and light emission by the aequorin is recorded with a luminometer for 30 sec. Results are expressed as Relative Light Units (RLU). Controls include assays using membranes isolated from cells not expressing ChemerinR (mock-transfected), in order to exclude possible non-specific effects of the candidate compound.
# ChemerinR-expres sing clones have been obtained by transfection of CHO-K1 cells to coexpressing mitochondrial apoaequorin and Gα16, limiting dilution and selection by northern blotting. Positive clones were used for screening with human ovarian cancer ascites extracts prepared as described above. […] Briefly, cells were collected from plates in PBS containing 5 mM EDTA, pelleted and resuspended at 5×10^6 cells/ml in DMEM-F12 medium. Cells were incubated with 5 μM Coelenterazine H (Molecular Probes) for 4 hours at room temperature. Cells were then washed in DMEM-F12 medium and resuspended at a concentration of 0.5×10^6 cells/ml. Cells were then mixed with test agonist peptides or plates containing tissue extracts and the light emission was recorded for 30 sec using a Microlumat luminometer (Perkin Elmer). Results are expressed as Relative Light Units (RLU).
row,SMILES,EC50
1,"C[C@H](NC(=O)[C@H](Cc1ccccc1)NC(=O)[C@H](CCC(N)=O)NC(=O)CNC(=O)[C@@H]1CCCN1)C(=O)N[C@@H](Cc1ccccc1)C(=O)N[C@@H](CO)C(=O)O [Human Chemerin-7, PGQFAFS] (H-PGQFAFS-OH)",220 ± 100 µM
2,C[C@H](NC(=O)[C@H](Cc1ccccc1)NC(=O)[C@H](CCC(N)=O)NC(=O)CNC(=O)[C@@H]1CCCN1C(=O)[C@@H](N)Cc1ccccc1)C(=O)N[C@@H](Cc1ccccc1)C(=O)N[C@@H](CO)C(=O)O [Human Chemerin-8] (H-FPGQFAFS-OH; N-terminus and C-terminus assumed),2 ± 1 µM
3,C[C@H](NC(=O)[C@H](Cc1ccccc1)NC(=O)[C@H](CCC(N)=O)NC(=O)CNC(=O)[C@@H]1CCCN1C(=O)[C@H](Cc1ccccc1)NC(=O)[C@H](Cc1ccc(O)cc1)NC(=O)[C@@H](N)Cc1ccccc1)C(=O)N[C@@H](Cc1ccccc1)C(=O)N[C@@H](CO)C(=O)O [Human Chemerin-10] (H-FYFPGQFAFS-OH; N-terminus and C-terminus assumed),0.0082 ± 0.002 µM
4,C[C@H](NC(=O)[C@H](Cc1ccccc1)NC(=O)[C@H](CCC(N)=O)NC(=O)CNC(=O)[C@@H]1CCCN1C(=O)[C@H](Cc1ccccc1)NC(=O)[C@H](Cc1ccc(O)cc1)NC(=O)[C@H](Cc1ccccc1)NC(=O)[C@H](CO)NC(=O)[C@@H](N)Cc1c[nH]cn1)C(=O)N[C@@H](Cc1ccccc1)C(=O)N[C@@H](CO)C(=O)O [Human Chemerin-12] (H-HSFYFPGQFAFS-OH; N-terminus and C-terminus assumed),0.0122 ± 0.0034 µM
5,C[C@H](NC(=O)[C@H](Cc1ccccc1)NC(=O)[C@H](CCC(N)=O)NC(=O)CNC(=O)[C@@H]1CCCN1C(=O)[C@H](Cc1ccccc1)NC(=O)[C@H](Cc1ccc(O)cc1)NC(=O)[C@H](Cc1ccccc1)NC(=O)[C@H](CO)NC(=O)[C@H](Cc1c[nH]cn1)NC(=O)[C@@H]1CCCN1)C(=O)N[C@@H](Cc1ccccc1)C(=O)N[C@@H](CO)C(=O)O [Human Chemerin-13] (H-PHSFYFPGQFAFS-OH),0.014 µM
6,C[C@H](NC(=O)[C@H](Cc1ccccc1)NC(=O)[C@H](CCC(N)=O)NC(=O)CNC(=O)[C@@H]1CCCN1C(=O)[C@H](Cc1ccccc1)NC(=O)[C@H](Cc1ccc(O)cc1)NC(=O)[C@H](Cc1ccccc1)NC(=O)[C@H](CO)NC(=O)[C@H](Cc1c[nH]cn1)NC(=O)[C@@H]1CCCN1C(=O)[C@H](CC(=O)O)NC(=O)[C@H](CCC(=O)O)NC(=O)CNC(=O)[C@H](C)NC(=O)[C@H](CCCNC(=N)N)NC(=O)[C@@H](N)CCC(N)=O)C(=O)N[C@@H](Cc1ccccc1)C(=O)N[C@@H](CO)C(=O)O [Human Chemerin-19] (H-QRAGEDPHSFYFPGQFAFS-OH),0.0167 ± 0.0032 µM
7,C[C@H](N)C(=O)N[C@@H](Cc1ccccc1)C(=O)N1CCC[C@H]1C(=O)NCC(=O)N[C@@H](CCC(N)=O)C(=O)N[C@@H](Cc1ccccc1)C(=O)N[C@@H](C)C(=O)N[C@@H](Cc1ccccc1)C(=O)N[C@@H](CO)C(=O)O [Human [Ala-1] Chemerin-9] (H-AFPGQFAFS-OH; N-terminus and C-terminus assumed),0.496 ± 0.08 µM

# Same assay, conditions: truncated Chemerin peptides, values given in μM; read-out: Mean EC50
row,EC50,SMILES
1,5 ± 1 µM,C[C@H](NC(=O)[C@H](C)NC(=O)[C@H](CCC(N)=O)NC(=O)CNC(=O)[C@@H]1CCCN1C(=O)[C@H](Cc1ccccc1)NC(=O)[C@@H](N)Cc1ccc(O)cc1)C(=O)N[C@@H](Cc1ccccc1)C(=O)N[C@@H](CO)C(=O)O [Human [Ala-6] Chemerin-9] (H-YFPGQAAFS-OH; N-terminus and C-terminus assumed)

# Same assay, conditions: truncated Chemerin peptides, values in nM; read-out: Mean EC50
row,EC50,SMILES
1,0.155 ± 0.0416 µM,C[C@H](NC(=O)[C@H](Cc1ccccc1)NC(=O)[C@H](CCC(N)=O)NC(=O)CNC(=O)[C@@H]1CCCN1C(=O)[C@H](C)NC(=O)[C@@H](N)Cc1ccc(O)cc1)C(=O)N[C@@H](Cc1ccccc1)C(=O)N[C@@H](CO)C(=O)O [Human [Ala-2] Chemerin-9] (H-YAPGQFAFS-OH; N-terminus and C-terminus assumed)
